Reference: PMC10223284, “Category-Based Toxicokinetic Evaluations of Data-Poor Per- and Polyfluoroalkyl Substances (PFAS) using Gas Chromatography Coupled with Mass Spectrometry” (Toxics, 2023)
Where “and” joins values, the source holds several entries; their conditions need not be identical. Equal values may be shown once. Read-outs that look alike come from different tables or passages of the source.

Experiments:
human plasma [1] = assay: Chemical stability in plasma over the UC assay time course (T5hr/T1hr); settings: for Time 1 hr / Time 1 hr, Run-specific Avg: amount measured in plasma sample at 1 hr; for Time 1 hr / Time 5 hr: replicates A, B, C; for Time 1 hr / Time 1 hr, Run-specific Avg / Time 5 hr / Time 5 hr, Run-specific Avg: unit not given; for Time 1 hr, Run-specific Avg / Time 5 hr, Run-specific Avg: run average; for Time 5 hr / Time 5 hr, Run-specific Avg: amount measured in plasma sample at 5 hr; for % remaining_PPB: chemical remaining in plasma over the PPB assay time course, NS = no significant loss; for PPB_Stab_Fail: flag for stability failure in the plasma protein binding assay (1 = fail, 0 = pass); for Fstable.Med: median fraction stable in plasma, UC assay Level4; for Stability (T5hr/ T1hr), replicates A, B, C: single replicate of one UC run
[2] = Abiotic loss in negative controls of the hepatocyte clearance assay (cell-free media, metabolically inactivated hepatocytes); assay type: in vitro ADME; settings: flag for stability failure in hepatocyte clearance assay controls (1 or Fst = fail, 0 = pass)
Protocol: (§1) The hepatic metabolic stability assay measures the loss of a parent compound over time in a substrate-depletion approach. Briefly, hepatocyte suspensions, after a viability assessment, were diluted in complete William’s medium E (containing dexamethasone and cell maintenance cocktail B) prior to addition to 96-well polypropylene plates containing an equal volume of media spiked with the test compound (1 μM assay concentration; assay cell density = 50,000 cells/100 μL) and maintained at 37 °C with shaking. At each time point, relevant plates were crashed with an equal volume of ice-cold acetonitrile, centrifuged, and supernatant transferred to a new plate prior to storage at <−70 °C until quantitative analysis. Controls, run in parallel, included cell-free (i.e., media only) and metabolically inactivated hepatocytes to evaluate abiotic chemical stability in the aqueous media matrix with and without cellular protein. In preliminary runs, these controls were run at T0 and T240 only. If significant instability was noted, the hepatocyte clearance assay was rerun, including cell-free samples at each time point and metabolically inactivated hepatocytes at selected time points.
Negative controls, including media only and metabolically inactivated hepatocyte controls, were included to monitor abiotic loss (i.e., background clearance) during the assay. Where significant compound loss occurred using the analysis described above, background clearance rates were calculated and used to background-adjust hepatic metabolic clearance rates. Where chemicals were cleared prior to the end of the analysis, at 240 min (T240), the corresponding negative control timepoint was used for background subtraction. Any chemicals displaying a 50% or more abiotic loss at T120 were deemed unstable and were excluded from further analyses.

in vitro = settings: both, human, plasma
human plasma [3] = assay: Ultracentrifugation (UC) plasma protein binding assay, fraction unbound in plasma (fup); settings: for Aqueous Fraction / Aqueous Fraction, Run-specific Avg: amount measured in aqueous fraction after ultracentrifugation, unit not given; for Aqueous Fraction: replicates A, B, C; for Aqueous Fraction, Run-specific Avg: run average; for Fup.Med: median fraction unbound in plasma; for Fup.Med / Fup.point: UC assay Level4; for Fup.point: point estimate of fraction unbound in plasma; for Fraction Unbound (fu), replicates A, B, C: single replicate of one UC run (aqueous fraction / Time 5 hr)
human plasma [4] = settings: human, plasma
[5] = Hepatic metabolic stability (hepatocyte clearance) assay, substrate depletion; assay type: in vitro ADME, human; settings: both sexes, human, s9, Clint.1.Med
Source text: William’s Medium E (Gibco A1217601), dexamethasone, and cell maintenance cocktail B (Gibco CM4000) were obtained from Thermo Fisher Scientific (Waltham, MA, USA). Hepatosure OptiThaw media (P/N K8000; Lot No. 18–1–0322) was obtained from Sekisui Xenotech (Kansas City, KS, USA). Trypan blue solution (P/N 1450021) was obtained from Bio-Rad (Hercules, CA, USA). Pooled human cryopreserved primary hepatocyte suspensions were obtained from BioIVT (Westbury, NY, USA) and produced using nontransplantable tissue. The human 50-donor pool (mixed gender; Cat X0080005; Lot MYC), selected from BioIVT’s commercially available, prepooled lots, was selected following review of vendor-generated metabolic characterization information. Pooled, mixed-sex human plasma from de-identified donors was obtained from a commercial vendor that operates a U.S. Food and Drug Administration-licensed and inspected donor center (BioIVT bioivt.com (accessed 12 May 2023). Donors comprised five males and five females and ranged from 20 to 50 years of age. Plasma collected using anticoagulant K2EDTA was sterile-filtered ([…]) and stored at <−70 °C until use.
as §1
To process samples for quantitative analysis, samples were thawed and mixed. An aliquot of sample was removed and diluted in acetonitrile (1 part sample plus 9 parts acetonitrile) containing the relevant ISs selected for the PFAS being analyzed (See Table S2). The target at instrument concentration of each IS was 10 pg/μL.
The curves were generated using concentration/response ratios from the target analyte and IS, with either linear or quadratic regression models. The model and weighting, if necessary, were chosen to most accurately reflect the response of each compound and was evaluated by recalculating the individual calibration points using the curve. An acceptable model reflected an accuracy of ±30% of the theoretical value.
Hepatic metabolic clearance data were plotted in semi-log format (ln concentration vs. time) with three replicates at each time point, as previously described. […] The equations described below are used to calculate the chemical half-life (T½) and intrinsic in vitro clearance (Clin vitro) with units of μL/(min × million hepatocytes). In Equation (3), 2000 is a scalar used to adjust the assay cell number up to be consistent with units of 1 million cells in the Clint equation.
Negative controls, including media only and metabolically inactivated hepatocyte controls, were included to monitor abiotic loss (i.e., background clearance) during the assay. Where significant compound loss occurred using the analysis described above, background clearance rates were calculated and used to background-adjust hepatic metabolic clearance rates. […]

[6] = mean T5hr/T1hr ratio in plasma over all replicates/runs
[7] = Fraction Unbound (fu), Run-specific Avg, average of one UC run
[8] = Fraction Unbound (fu), individual replicates A, B, C of the UC run named in c8
[9] = Mean Fu, mean fraction unbound in human plasma over all UC replicates/runs
[10] = Mean fu, fraction unbound in human plasma, ultracentrifugation, some values based on eLOQ
[11] = average of one UC run (run date in line above)
[12] = mean T5hr/T1hr ratio over all replicates and runs, plasma
[13] = Fraction Unbound (fu), Run-specific Avg, average of one UC run (run date in line above)
[14] = Fraction Unbound (fu), replicates A, B, C, single replicate of one UC run (aqueous fraction / Time 5 hr)
[15] = Mean Fu, mean fraction unbound over all replicates and runs, UC assay, human plasma

Row | Compound | Time 1 hr (human plasma [1]) | Time 1 hr, Run-specific Avg (human plasma [1]) | Time 5 hr (human plasma [1]) | Time 5 hr, Run-specific Avg (human plasma [1]) | Stability (T5hr/ T1hr), Run-specific Avg (human plasma [1]; average of one UC run) | % remaining_PPB (human plasma [1]) [%] | PPB_Stab_Fail (human plasma [1]) | Mean Stability (human plasma [1]; [6]) | Fstable.Med (human plasma [1]) | Hep_Stab_Fail [2] | fraction unbound (in vitro; [7]) | fraction unbound (in vitro; [10]) | Aqueous Fraction (human plasma [3]) | Aqueous Fraction, Run-specific Avg (human plasma [3]) | Fup.Med (human plasma [3]) | Fup.point (human plasma [3]) | Stability (T5hr/ T1hr), Run-specific Avg (human plasma [1]; [11]) | Mean Stability (human plasma [1]; [12]) | Stability (T5hr/ T1hr), replicates A, B, C (human plasma [1]) | fraction unbound (in vitro; [15]) | also measured
1 | FC(F)(Br)C(F)(F)C(F)(F)C(F)(F)C(F)(F)C(F)(F)Br [1,6-Dibromododecafluorohexane] | 8781.60 and 9238.06 and 11600.01 | 9873.23 | 4002.39 and 3732.26 and 4390.36 | 3867.32 | 0.392 | 40 | 0 | 0.415 | 0.312 | 1 | 0.00422 | 0.004 | 16.97 | 16.97 | 1.78E-09 | 0 |  |  |  |  | fraction unbound (in vitro; [8]): 0.00424; fraction unbound (in vitro; [9]): 0.00422; fup (human plasma [3]; human plasma, 10 μM, ultracentrifugation, 37 °C): 0.004
2 | C=CC(=O)OCCC(F)(F)C(F)(F)C(F)(F)C(F)(F)C(F)(F)C(F)(F)C(F)(F)C(F)(F)F [8:2 Fluorotelomer acrylate] |  |  |  |  |  |  |  |  |  | 1 |  |  |  |  |  |  |  |  |  |  | % remaining_PPB (human plasma [4]): 0%; PPB_Stab_Fail (human plasma [4]): 1
3 | C=C(C)C(=O)OCCC(F)(F)C(F)(F)C(F)(F)C(F)(F)C(F)(C(F)(F)F)C(F)(F)F [(Perfluoro-5-methylhexyl)ethyl 2-methylprop-2-enoate] |  |  |  |  |  | 63.6 |  |  | 0.43 | 1 |  | 0.0603 |  |  | 4.30E-06 | 0.0603 |  |  |  |  | 
4 | FC(F)(I)C(F)(F)C(F)(F)C(F)(F)I [Perfluoro-1,4-diiodobutane] | 1436.94 and 1194.41 and 1213.84 | 1281.73 | 860.037 and 995.998 and 977.671 | 928.02 | 0.724 |  | 0 | 0.740 | 0.11 | 1 | 0.00546 | 0.0055 | 6.005 and 3.594 and 5.646 | 5.08 | 0.00723 | 0.00533 |  |  |  |  | fraction unbound (in vitro; [8]): 0.00698; fraction unbound (in vitro; [9]): 0.00546
5 | OCCCC(F)(F)C(F)(F)C(F)(F)F [3-(Perfluoropropyl)propanol] |  |  |  |  |  |  | 0 |  | 0.2 | 1 |  | 0.203 |  |  | 0.202 | 0.205 | 0.890 | 0.892 | 0.858 and 0.887 and 0.929 | 0.203 | fraction unbound (in vitro; [13]): 0.2; fraction unbound (in vitro; [14]): 0.179; Fraction Unbound (fu), replicates A, B, C (human plasma [3]): 0.224 and 0.207
6 | OCCCC(F)(F)C(F)(F)C(F)(F)C(F)(F)C(F)(F)C(F)(F)C(F)(F)C(F)(F)F [3-(Perfluorooctyl)propanol] |  |  |  |  |  |  | 0 |  | 0.272 | 1 |  | 0.0357 |  |  | 0.0348 | 0.0352 | 0.894 | 0.893 | 0.9156 and 0.9452 and 0.8196 | 0.036 | fraction unbound (in vitro; [14]): 0.0277; Fraction Unbound (fu), replicates A, B, C (human plasma [3]): 0.03475 and 0.04477
7 | CCNc1nc(NC(C)C)nc(SC)n1 [Ametryn, reference compound] |  |  |  |  |  |  |  |  |  |  |  |  |  |  |  |  |  |  |  |  | hepatocyte CLint at 1 μM [5]: 14.7 µL/min/1e6 cells
8 | FC(F)(I)C(F)(F)C(F)(F)C(F)(F)C(F)(F)C(F)(F)I [1,6-Diiodoperfluorohexane] | 8774.08 and 7745.84 and 7383.58 | 7967.83 | 5893.98 and 5567.71 and 5583.03 | 5730.84 | 0.719 | 72 | 0 | 0.718 | 0.577 | 1 | 0.0256 | 0.026 | 94.9667 and 176.609 and 162.022 | 144.53 | 0.295 | 0.267 | 0.687 | 0.685 | 0.7185 and 0.686 and 0.6511 | 0.361 | fraction unbound (in vitro; [13]): 0.36; fraction unbound (in vitro; [8]): 0.0161; Fraction Unbound (fu), replicates A, B, C (human plasma [3]): 0.5494 and 0.308 and 0.227
9 | O=C(CC(=O)C(F)(F)C(F)(F)C(F)(F)F)c1cccs1 [(Perfluorobutyryl)-2-thenoylmethane] |  |  |  |  |  | 100 | 0 |  | 0.959 | Fst |  | 0.006 |  |  | 0.00944 | 0.00576 | 1.277 | 1.278 | 1.693 and 1.2724 and 0.868 | 0.007 | fraction unbound (in vitro; [13]): 0.00714; fraction unbound (in vitro; [14]): 0.00885; Fraction Unbound (fu), replicates A, B, C (human plasma [3]): 0.006374 and 0.006195
10 | C=C(C)C(=O)OCC(F)(F)C(F)(F)C(F)(F)C(F)F [1H,1H,5H-Perfluoropentyl methacrylate] | 1599.93 and 1543.59 and 1278.91 | 1474.15 | 75.2443 and 72.767 and 69.0294 | 74.01 | 0.050 | 0.01 | 1 | 0.050 | 0.00623 | 1 | 0.25 |  | 25.8202 and 12.2631 and 16.0467 | 18.04 | 0.267 | 0.249 |  |  |  |  | fraction unbound (in vitro; [9]): 0.248
